The values that follow come from PubChem BioAssay AID252 (DTP/NCI, 2004).

“And” between values parts separate entries of the source, which are not always exact repeats. Identical values can stand only once. Inconclusive results and toxic doses are left out.

For this experiment, the system named is BDF1 mice, intracerebral L1210 leukemia, survival T/C. The experiment can be described thus: NCI In Vivo Anticancer Drug Screen. Data for tumor model L1210 Leukemia (intracerebral) in B6D2F1 (BDF1) mice. The note with it: endpoint: mean survival time, higher = longer survival. The method, boiled down:
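Tumour was transplanted, animals received compound or vehicle, then survival in each group was measured and treated divided by control.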

Consider `O=NN(CCF)C(=O)NC1CC2CCC1C2` (stereo not drawn), for which the T/C was 106 % of control (dose: 5.7 mg/kg/injection, schedule: Q01DX001 (ip), vehicle: other); 115 % of control (dose: 11.5 mg/kg/injection, schedule: Q01DX001 (ip), vehicle: other); 162 % of control (dose: 16.5 mg/kg/injection, schedule: Q01DX001 (ip), vehicle: other); 161 % of control (dose: 23.0 mg/kg/injection, schedule: Q01DX001 (ip), vehicle: other); 252 % of control (dose: 25.0 mg/kg/injection, schedule: Q01DX001 (ip), vehicle: other); 274 % of control (dose: 37.0 mg/kg/injection, schedule: Q01DX001 (ip), vehicle: other). Besides, the T/C is 321 % of control (dose: 37.5 mg/kg/injection, schedule: Q01DX001 (ip), vehicle: other); 309 % of control (dose: 46.0 mg/kg/injection, schedule: Q01DX001 (ip), vehicle: other); 312 % of control (dose: 70.0 mg/kg/injection, schedule: Q01DX001 (ip), vehicle: other); 312 % of control (dose: 126.0 mg/kg/injection, schedule: Q01DX001 (ip), vehicle: other).

Turning to `O=NN(CCCl)C(=O)Nc1cccc(C(=O)O)c1`, the T/C by setting is: (dose: 8.0 mg/kg/injection, schedule: Q01DX001 (ip), vehicle: carboxymethylcellulose (CMC)) 95 % of control; (dose: 12.0 mg/kg/injection, schedule: Q01DX001 (ip), vehicle: carboxymethylcellulose (CMC)) 108 % of control; (dose: 18.0 mg/kg/injection, schedule: Q01DX001 (ip), vehicle: carboxymethylcellulose (CMC)) 106 % of control.

As to `CCOC(=O)C1(NC(=O)N(CCCl)N=O)CCCCC1`, the T/C is 110 % of control (dose: 62.0 mg/kg/injection, schedule: Q01DX001 (ip), vehicle: other); 192 % of control and 200 % of control (dose: 250.0 mg/kg/injection, schedule: Q01DX001 (ip), vehicle: other); 190 % of control and 196 % of control (dose: 500.0 mg/kg/injection, schedule: Q01DX001 (ip), vehicle: other); 215 % of control (dose: 750.0 mg/kg/injection, schedule: Q01DX001 (ip), vehicle: other); 156 % of control (dose: 1000.0 mg/kg/injection, schedule: Q01DX001 (ip), vehicle: other).

With `O=c1cn[nH]c(=O)[nH]1`, the T/C runs as follows: (dose: 440.0 mg/kg/injection, schedule: Q01DX001 (ip), vehicle: carboxymethylcellulose (CMC)) 102 % of control; (dose: 670.0 mg/kg/injection, schedule: Q01DX001 (ip), vehicle: carboxymethylcellulose (CMC)) 101 % of control; (dose: 1000.0 mg/kg/injection, schedule: Q01DX001 (ip), vehicle: carboxymethylcellulose (CMC)) 101 % of control.

In the case of `CN1CCN(CCCN2c3ccccc3Sc3ccc(C(F)(F)F)cc32)CC1`, for the setting “dose: 44.0 mg/kg/injection, schedule: Q04DX003 (ip), vehicle: water”, the T/C is 108 % of control.

Consider `C[C@H](N)C(=O)N[C@@H]1[C@H]2C(=C(O)C[C@@H](O)[C@@H]2O)C(=O)O[C@@H]1C`, for which the T/C was 97 % of control (dose: 125.0 mg/kg/injection, schedule: Q01DX Z (ip), vehicle: saline); 103 % of control (dose: 211.0 mg/kg/injection, schedule: Q01DX015 (ip), vehicle: saline); 107 % of control (dose: 250.0 mg/kg/injection, schedule: Q01DX Z (ip), vehicle: saline); 103 % of control (dose: 320.0 mg/kg/injection, schedule: Q01DX015 (ip), vehicle: saline); 102 % of control (dose: 480.0 mg/kg/injection, schedule: Q01DX015 (ip), vehicle: saline); 109 % of control (dose: 500.0 mg/kg/injection, schedule: Q01DX Z (ip), vehicle: saline). Also, the T/C (dose: 720.0 mg/kg/injection, schedule: Q01DX015 (ip), vehicle: saline) is 103 % of control; the T/C (dose: 750.0 mg/kg/injection, schedule: Q01DX Z (ip), vehicle: saline) was 107 % of control; the T/C (dose: 1000.0 mg/kg/injection, schedule: Q01DX Z (ip), vehicle: saline) is 106 % of control; the T/C (dose: 1080.0 mg/kg/injection, schedule: Q01DX015 (ip), vehicle: saline) was 105 % of control; the T/C (dose: 1500.0 mg/kg/injection, schedule: Q01DX Z (ip), vehicle: saline) was 106 % of control; the T/C (dose: 2024.0 mg/kg/injection, schedule: Q01DX001 (ip), vehicle: saline) was 109 % of control. In addition, the T/C (dose: 3082.0 mg/kg/injection, schedule: Q01DX001 (ip), vehicle: saline) was 105 % of control.

Take `C[n+]1ccc(Nc2ccc(NC(=O)c3ccc(Nc4cc[n+](C)c5ccc(N)cc45)cc3N)cc2)cc1`: the T/C was 93 % of control (dose: 1.0 mg/kg/injection, schedule: Q01DX009 (ip), vehicle: water); 97 % of control (dose: 2.0 mg/kg/injection, schedule: Q01DX009 (ip), vehicle: water); 104 % of control (dose: 4.0 mg/kg/injection, schedule: Q01DX009 (ip), vehicle: water); 112 % of control (dose: 8.0 mg/kg/injection, schedule: Q01DX009 (ip), vehicle: water).

For `O=C(Nc1ccc(C2=NCCN2)cc1)c1ccc(C(=O)Nc2ccc(C3=NCCN3)cc2)cc1`, the T/C (dose: 50.0 mg/kg/injection, schedule: Q01DX Z (ip), vehicle: carboxymethylcellulose (CMC)) was 107 % of control; the T/C (dose: 100.0 mg/kg/injection, schedule: Q01DX Z (ip), vehicle: carboxymethylcellulose (CMC)) was 110 % of control; the T/C (dose: 200.0 mg/kg/injection, schedule: Q01DX Z (ip), vehicle: carboxymethylcellulose (CMC)) is 121 % of control; the T/C (dose: 250.0 mg/kg/injection, schedule: Q01DX Z (ip), vehicle: carboxymethylcellulose (CMC)) is 116 % of control; the T/C (dose: 375.0 mg/kg/injection, schedule: Q01DX Z (ip), vehicle: carboxymethylcellulose (CMC)) was 97 % of control.

For `OCCOCCN1CCN(CCCN2c3ccccc3Sc3ccc(C(F)(F)F)cc32)CC1`, the T/C (dose: 18.7 mg/kg/injection, schedule: Q04DX003 (ip), vehicle: saline) is 106 % of control; the T/C (dose: 37.5 mg/kg/injection, schedule: Q04DX003 (ip), vehicle: saline) was 106 % of control; the T/C (dose: 75.0 mg/kg/injection, schedule: Q04DX003 (ip), vehicle: saline) is 106 % of control.

As for `Cc1cc(C)c(NC(=O)N(CCCl)N=O)c(C)c1`, the T/C is, setting by setting: (dose: 5.0 mg/kg/injection, schedule: Q01DX001 (ip), vehicle: other) 97 % of control; (dose: 7.5 mg/kg/injection, schedule: Q01DX001 (ip), vehicle: other) 98 % of control; (dose: 10.0 mg/kg/injection, schedule: Q01DX001 (ip), vehicle: other) 103 % of control; (dose: 15.0 mg/kg/injection, schedule: Q01DX001 (ip), vehicle: other) 107 % of control and 117 % of control; (dose: 20.0 mg/kg/injection, schedule: Q01DX001 (ip), vehicle: other) 115 % of control; (dose: 128.0 mg/kg/injection, schedule: Q01DX001 (ip), vehicle: other) 101 % of control.

With `S=C=NCCc1ccccc1`, the T/C reads like this: (dose: 12.5 mg/kg/injection, schedule: Q01DX009 (ip), vehicle: saline with Tween-80) 343 % of control; (dose: 25.0 mg/kg/injection, schedule: Q01DX009 (ip), vehicle: saline with Tween-80) 93 % of control; (dose: 50.0 mg/kg/injection, schedule: Q01DX009 (ip), vehicle: saline with Tween-80) 95 % of control.

Take `C[C@H]1CN1C1=CC(=O)C(N2C[C@@H]2C)=CC1=O`: the T/C (dose: 8.0 mg/kg/injection, schedule: Q01DX009 (ip), vehicle: saline) was 90 % of control.

For the compound `[N-]=[N+]=CC(=O)NCC(=O)NN`, the T/C is 101 % of control (dose: 300.0 mg/kg/injection, schedule: Q01DX Z (ip), vehicle: water); 87 % of control (dose: 400.0 mg/kg/injection, schedule: Q01DX Z (ip), vehicle: water); 87 % of control (dose: 500.0 mg/kg/injection, schedule: Q01DX Z (ip), vehicle: water).

For `c1nc(SSc2ncnc3nc[nH]c23)c2[nH]cnc2n1`, the T/C (dose: 75.0 mg/kg/injection, schedule: Q04DX003 (ip), vehicle: Klucel (hydroxypropylcellulose) (HPC)) was 108 % of control.

`CN(N=O)C(=O)C(=O)N(C)N=O`: the T/C (dose: 15.0 mg/kg/injection, schedule: Q01DX Z (ip), vehicle: saline) is 98 % of control; the T/C (dose: 30.0 mg/kg/injection, schedule: Q01DX Z (ip), vehicle: saline) is 97 % of control; the T/C (dose: 60.0 mg/kg/injection, schedule: Q01DX Z (ip), vehicle: saline) was 98 % of control; the T/C (dose: 120.0 mg/kg/injection, schedule: Q01DX Z (ip), vehicle: saline) is 98 % of control.

As to `CCNC1=C(N2CC2)C(=O)C(NCC)=C(N2CC2)C1=O`, the T/C (dose: 0.37 mg/kg/injection, schedule: Q01DX009 (ip), vehicle: saline) is 101 % of control and 100 % of control; the T/C (dose: 0.75 mg/kg/injection, schedule: Q01DX009 (ip), vehicle: saline) is 104 % of control and 117 % of control; the T/C (dose: 1.5 mg/kg/injection, schedule: Q01DX009 (ip), vehicle: saline) was 124 % of control.
